Experimental data from paper PMC8924334, “Synthesis of [^11C]carbonyl-labeled cyclohexyl (5-(2-acetamidobenzo[d]thiazol-6-yl)-2-methylpyridin-3-yl)carbamate ([^11C-carbonyl]PK68) as a potential PET tracer for receptor-interacting protein 1 kinase” (EJNMMI Radiopharmacy and Chemistry, 2022).
Several values for one entry are separate records, joined by “and”; a condition that tells them apart may be missing. Equal entries are not always repeated.

What was measured:
[1] = Lipophilicity (logD), n-octanol/PBS pH 7.4 shake-flask; format: physicochemical; conditions: n-octanol/PBS pH 7.4, room temperature
Experimental: An aliquot of 0.65 mL PBS and 0.65 mL n-octanol was removed and weighed, and its radioactivity was determined using an autogamma counter (2480 Wizard^2, Perkin-Elmer, Waltham, MA, USA). Each sample from the remaining organic layer was removed and repartitioned until a consistent logD value was obtained. The logD value was calculated by comparing the ratio of counts per minute (cpm)/g of n-octanol to that of PBS, and is expressed as logD = log[cpm/g (n-octanol)/cpm/g (PBS)]. All measurements were performed in triplicate.

[2] = Metabolite analysis in plasma and liver; format: in vivo, mice
Experimental: Following intravenous injection of [^11C]PK68 (37 MBq, 0.1 mL), the mice (8–9 weeks, 40.1 ± 5.3 g) were killed by cervical dislocation at 5, 15, 30, and 60 min. Blood and liver samples were obtained immediately. Each blood sample was centrifuged in a heparinized tube at 15,000 g for 2 min at 4 °C to separate the plasma. The supernatant was collected in a test tube containing CH3CN, and the resulting mixture was vortexed for 15 s, then centrifuged at 15,000 g for 2 min for deproteinization. The resulting supernatant was collected. Each liver sample was homogenized using a Silent Crusher S homogenizer (Rose scientific, Edmonton, Canada) in ice-cooled saline. The resulting homogenate was mixed with an equivalent amount of CH3CN, and centrifuged at 15,000 g for 2 min for deproteinization. An aliquot of the supernatant (0.1–1.0 mL) obtained from the plasma or liver homogenate was injected into the HPLC system with a radioactivity detector, and analyzed using a Capcell Pak C18 column (4.6 mm i.d. × 250 mm, Shiseido) with a mobile phase [CH3CN/H2O/TFA, (45/55/0.1, v/v/v)] at a flow rate of 1.0 mL/min. The percentage ratio of [^11C]PK68 (tR = 5.0 min) to total radioactivity (corrected for decay) on the HPLC chromatogram was calculated as % = (peak area for [^11C]PK68/total peak area) × 100.

[3] = Ex vivo biodistribution study; format: in vivo, mice; conditions: mean ± SD, n = 3
Experimental: Each mouse (8 weeks old, 37.9 ± 1.0 g) was injected with a bolus of [^11C]PK68 (2.7 MBq, 0.1 mL) via its tail vein. Three mice were sacrificed by cervical dislocation at each experimental time-point (1, 5, 15, 30, and 60 min) after the injection. The blood (heart contents), heart wall, lung, liver, pancreas, spleen, kidneys, adrenals, stomach (including contents), small intestine (including contents), large intestines (including contents), testes, muscles, and whole brain were removed quickly and weighed. The radioactivity in these tissues was measured with an autogamma scintillation counter (2480 Wizard^2) and expressed as %ID/g. All radioactivity measurements were corrected for decay.

Cc1ncc(-c2ccc3nc(N[11C](C)=O)sc3c2)cc1NC(=O)OC1CCCCC1 [[^11C]PK68, Cyclohexyl (5-(2-[^11C-carbonyl]acetamidobenzo[d]thiazol-6-yl)-2-methylpyridin-3-yl)carbamate]
logD [1]: 4 | unchanged [11C]PK68 in liver ([2]; 5 min after injection): 85% | unchanged [11C]PK68 in plasma ([2]; 5 min after injection): 85% | unchanged [11C]PK68 in liver ([2]; 15 min after injection): 67% | unchanged [11C]PK68 in plasma ([2]; 15 min after injection): 66% | unchanged [11C]PK68 in liver ([2]; 30 min after injection): 68% | unchanged [11C]PK68 in plasma ([2]; 30 min after injection): 65% | unchanged [11C]PK68 in liver ([2]; 60 min after injection): 57% | unchanged [11C]PK68 in plasma ([2]; 60 min after injection): 57% and > 50% | radioactivity in adrenals ([3]; 1 min after injection): 6.2 ± 2.7 %ID/g | radioactivity in blood ([3]; 1 min after injection): 2.4 ± 0.3 %ID/g | radioactivity in brain ([3]; 1 min after injection): 0.6 ± 0.0 %ID/g | radioactivity in heart ([3]; 1 min after injection): 7.6 ± 0.3 %ID/g | radioactivity in large intestine (including contents) ([3]; 1 min after injection): 0.7 ± 0.1 %ID/g | radioactivity in liver ([3]; 1 min after injection): 8.0 ± 0.8 %ID/g | radioactivity in lung ([3]; 1 min after injection): 5.2 ± 0.2 %ID/g | radioactivity in muscle ([3]; 1 min after injection): 1.9 ± 0.3 %ID/g | radioactivity in pancreas ([3]; 1 min after injection): 3.4 ± 0.2 %ID/g | radioactivity in small intestine (including contents) ([3]; 1 min after injection): 1.8 ± 0.1 %ID/g | radioactivity in spleen ([3]; 1 min after injection): 1.5 ± 0.2 %ID/g | radioactivity in stomach (including contents) ([3]; 1 min after injection): 1.2 ± 0.2 %ID/g | radioactivity in testis ([3]; 1 min after injection): 0.3 ± 0.1 %ID/g | radioactivity in adrenals ([3]; 5 min after injection): 4.0 ± 0.5 %ID/g | radioactivity in blood ([3]; 5 min after injection): 1.3 ± 0.2 %ID/g | radioactivity in brain ([3]; 5 min after injection): 0.4 ± 0.0 %ID/g | radioactivity in heart ([3]; 5 min after injection): 2.8 ± 0.3 %ID/g | radioactivity in kidney ([3]; 5 min after injection): 9.9 ± 0.4 %ID/g | radioactivity in large intestine (including contents) ([3]; 5 min after injection): 0.9 ± 0.1 %ID/g | radioactivity in liver ([3]; 5 min after injection): 17.2 ± 0.7 %ID/g | radioactivity in lung ([3]; 5 min after injection): 2.6 ± 0.2 %ID/g | radioactivity in muscle ([3]; 5 min after injection): 1.1 ± 0.1 %ID/g | radioactivity in pancreas ([3]; 5 min after injection): 2.7 ± 0.3 %ID/g | radioactivity in small intestine (including contents) ([3]; 5 min after injection): 3.3 ± 0.1 %ID/g | radioactivity in spleen ([3]; 5 min after injection): 1.6 ± 0.1 %ID/g | radioactivity in stomach (including contents) ([3]; 5 min after injection): 2.0 ± 0.1 %ID/g | radioactivity in testis ([3]; 5 min after injection): 0.3 ± 0.0 %ID/g | radioactivity in adrenals ([3]; 15 min after injection): 3.3 ± 0.5 %ID/g | radioactivity in blood ([3]; 15 min after injection): 1.1 ± 0.1 %ID/g | radioactivity in brain ([3]; 15 min after injection): 0.3 ± 0.0 %ID/g | radioactivity in heart ([3]; 15 min after injection): 2.1 ± 0.3 %ID/g | radioactivity in kidney ([3]; 15 min after injection): 7.7 ± 1.0 %ID/g | radioactivity in large intestine (including contents) ([3]; 15 min after injection): 1.4 ± 0.3 %ID/g | radioactivity in liver ([3]; 15 min after injection): 15.6 ± 0.8 %ID/g | radioactivity in lung ([3]; 15 min after injection): 2.1 ± 0.3 %ID/g | radioactivity in muscle ([3]; 15 min after injection): 0.8 ± 0.1 %ID/g | radioactivity in pancreas ([3]; 15 min after injection): 2.1 ± 0.3 %ID/g | radioactivity in small intestine (including contents) ([3]; 15 min after injection): 9.8 ± 3.1 %ID/g | radioactivity in spleen ([3]; 15 min after injection): 1.4 ± 0.2 %ID/g | radioactivity in stomach (including contents) ([3]; 15 min after injection): 4.0 ± 1.2 %ID/g | radioactivity in testis ([3]; 15 min after injection): 0.3 ± 0.0 %ID/g | radioactivity in adrenals ([3]; 30 min after injection): 2.1 ± 0.8 %ID/g | radioactivity in blood ([3]; 30 min after injection): 0.8 ± 0.1 %ID/g | radioactivity in brain ([3]; 30 min after injection): 0.2 ± 0.0 %ID/g | radioactivity in heart ([3]; 30 min after injection): 1.3 ± 0.1 %ID/g | radioactivity in kidney ([3]; 30 min after injection): 6.2 ± 0.6 %ID/g | radioactivity in large intestine (including contents) ([3]; 30 min after injection): 1.7 ± 0.4 %ID/g | radioactivity in liver ([3]; 30 min after injection): 10.7 ± 0.3 %ID/g | radioactivity in lung ([3]; 30 min after injection): 1.5 ± 0.2 %ID/g | radioactivity in muscle ([3]; 30 min after injection): 0.6 ± 0.1 %ID/g | radioactivity in pancreas ([3]; 30 min after injection): 1.4 ± 0.1 %ID/g | radioactivity in small intestine (including contents) ([3]; 30 min after injection): 16.7 ± 1.4 %ID/g | radioactivity in spleen ([3]; 30 min after injection): 0.9 ± 0.0 %ID/g | radioactivity in stomach (including contents) ([3]; 30 min after injection): 4.7 ± 1.0 %ID/g | radioactivity in testis ([3]; 30 min after injection): 0.3 ± 0.0 %ID/g | radioactivity in adrenals ([3]; 60 min after injection): 1.2 ± 0.1 %ID/g | radioactivity in blood ([3]; 60 min after injection): 0.5 ± 0.1 %ID/g | radioactivity in brain ([3]; 60 min after injection): 0.1 ± 0.0 %ID/g | radioactivity in heart ([3]; 60 min after injection): 0.7 ± 0.1 %ID/g | radioactivity in kidney ([3]; 60 min after injection): 3.2 ± 0.1 %ID/g | radioactivity in large intestine (including contents) ([3]; 60 min after injection): 2.6 ± 0.6 %ID/g | radioactivity in liver ([3]; 60 min after injection): 6.0 ± 0.2 %ID/g | radioactivity in lung ([3]; 60 min after injection): 0.8 ± 0.1 %ID/g | radioactivity in muscle ([3]; 60 min after injection): 0.3 ± 0.0 %ID/g | radioactivity in pancreas ([3]; 60 min after injection): 0.8 ± 0.1 %ID/g | radioactivity in small intestine (including contents) ([3]; 60 min after injection): 27.7 ± 3.0 %ID/g | radioactivity in spleen ([3]; 60 min after injection): 0.5 ± 0.1 %ID/g | radioactivity in stomach (including contents) ([3]; 60 min after injection): 7.2 ± 2.4 %ID/g | radioactivity in testis ([3]; 60 min after injection): 0.2 ± 0.0 %ID/g
